# Measurements published in publication PMC6272426, “LC-ESI-MS/MS Analysis and Pharmacokinetics of GP205, an Innovative Potent Macrocyclic Inhibitor of Hepatitis C Virus NS3/4A Protease in Rats” (Molecules, 2015).
# Like-named read-outs stand apart in the source and are kept apart here.
# What was measured:
# [1] = biological target: NS3 enzyme, genotype 1b HCV (HCV NS3/4A protease) (Hepatitis C virus genotype 1b, UniProt Q9WMX2); test: biochemical
# [2] = format: physicochemical; settings: Stock solution
# Procedure: [table] Stock solutions of GP205 were prepared by dissolving an accurately weighed amount of reference standard in methanol to yield a final concentration of 1 mg/mL. The solutions were sonicated for 5 min to ensure complete dissolution. Then the solutions were allowed to equilibrate to room temperature and diluted to volume with methanol. Working standard solutions of GP205 in the concentration range of 20–50,000 ng/mL were prepared from individual aliquots of 1 mg/mL solution using methanol–water (95:5, v/v) as the diluent. The stock standard solution of IS was prepared by dissolving appropriate amount of paclitaxel in methanol at the concentration of 1 mg/mL. A 1 μg/mL IS working solution was obtained by diluting the stock solution of paclitaxel with methanol–water (95:5, v/v). All the solutions were stored at 4 °C and brought to room temperature before use. Calibration standards were prepared daily by spiking 5 μL of the appropriate standard solutions to 45 μL of the blank SD rat plasma. Plasma concentrations were 2, 5, 10, 50, 100, 200, 500, 2000 and 5000 ng/mL for GP205. QC samples, which were used in the validation and during the pharmacokinetics study, were prepared from different sources by independent dilution at three levels (5, 100, 4000 ng/mL) for GP205. QC samples were aliquoted into 1.5 mL non-sterile Eppendorf tubes and stored at −80 °C until analysis.
# [3] = Sprague-Dawley, rat, in vivo, po
# Procedure: (§1) The method developed above was applied to a pharmacokinetic study of GP205 to SD rats after single oral doses at 2.5, 5 and 10 mg/kg and an intravenous injection dose at 1 mg/kg.
# (§2) Twenty four SD rats (12 males and 12 females), weighing 210 ± 8 g (mean ± SD) were fed with certified standard diet and tap water ad libitum. Temperature and humidity were regulated at 21–23 °C and 30%–60%, respectively. A light/dark cycle of 12 h on/12 h off was established. After 1 week of acclimatization, they were randomly divided into 4 groups (3 males and 3 females for each group). After fasted overnight, three groups of them received oral administration of GP205 at three dosages 2.5 mg/kg, 5 mg/kg, 10 mg/kg dissolved in mixed solvent (5% DMSO, 40% PEG-400, 55% physiological saline), respectively. The other group of them received an intravenous injection of GP205 at 1 mg/kg. […] Blood samples (100 μL) were collected into heparinized tubes before administration and at 0.083, 0.17, 0.33, 0.5, 1, 2, 3, 4, 6, 8, 12, 24, 36, 48 h after oral administration or before administration and at 0, 0.083, 0.17, 0.33, 0.5, 1, 2, 3, 4, 6, 8, 12, 24, 36 , 48 h after intravenous administration. The plasma was separated from heparinized blood by centrifugation at 3500 rpm for 10 min and stored at −80 °C prior to analysis.
# [4] = both, Sprague-Dawley, rat, in vivo, iv, 1 mg/kg
# Procedure: as §1, §2
# [5] = Sprague-Dawley, rat
# in vivo [6] = settings: Sprague-Dawley, rat
# Procedure: as §1, §2
# in vivo [7] = settings: both, Sprague-Dawley, rat, iv, 1 mg/kg
# Procedure: as §1, §2
# [8] = set-up: method as in PMID 15732092; settings: rhesus monkeys; cited from earlier work
# [9] = set-up: method as in PMID 24900304; settings: comparison value for MK-1220; cited from earlier work
# [10] = 4 °C for 40 days, nominal 5 ng/mL
# [11] = 4 °C for 40 days, nominal 100 ng/mL
# [12] = 4 °C for 40 days, nominal 4000 ng/mL
# [13] = 25 °C for 24 h, nominal 5 ng/mL
# [14] = 25 °C for 24 h, nominal 100 ng/mL
# [15] = 25 °C for 24 h, nominal 4000 ng/mL
# Chain of NS3 enzyme, genotype 1b HCV (HCV NS3/4A protease) (Q9WMX2 1027-1657): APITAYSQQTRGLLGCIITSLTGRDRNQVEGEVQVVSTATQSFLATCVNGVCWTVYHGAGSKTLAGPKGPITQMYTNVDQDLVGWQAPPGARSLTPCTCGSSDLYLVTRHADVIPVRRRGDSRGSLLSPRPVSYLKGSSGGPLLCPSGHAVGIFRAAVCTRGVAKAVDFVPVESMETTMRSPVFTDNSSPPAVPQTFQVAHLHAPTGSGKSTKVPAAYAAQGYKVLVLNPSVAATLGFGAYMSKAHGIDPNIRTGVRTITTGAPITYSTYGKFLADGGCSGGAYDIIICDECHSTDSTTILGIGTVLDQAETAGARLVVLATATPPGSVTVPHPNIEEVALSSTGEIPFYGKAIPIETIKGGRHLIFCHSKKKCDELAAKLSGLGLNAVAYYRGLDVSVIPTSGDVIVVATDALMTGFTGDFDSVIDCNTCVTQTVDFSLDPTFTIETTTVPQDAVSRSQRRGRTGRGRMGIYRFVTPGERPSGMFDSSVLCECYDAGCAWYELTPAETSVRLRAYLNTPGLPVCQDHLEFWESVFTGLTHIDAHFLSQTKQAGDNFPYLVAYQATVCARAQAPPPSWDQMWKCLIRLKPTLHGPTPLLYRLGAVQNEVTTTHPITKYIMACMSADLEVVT
# Chain of NS3 enzyme, genotype 1b HCV (HCV NS3/4A protease) (Q9WMX2 1658-1711): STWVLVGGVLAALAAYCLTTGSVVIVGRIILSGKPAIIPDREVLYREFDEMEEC
structure (smiles),measurement,setting,value
"C=C[C@@H]1C[C@]1(NC(=O)[C@@H]1C[C@@H]2CN1C(=O)[C@H](C1CCCCC1)NC(=O)[C@@H](NC(=O)OC(C)(C)C)COC/C=C/c1cc3c(nccc3cc1OC)O2)C(=O)NS(=O)(=O)C1CC1 [GP205, potassium tert-butyl N-[(3R,5S,8S,11S,15E)-8-cyclohexyl-5-{[(1R,2S)-1-[(cyclo-propanesulfonyl)carbamoyl]-2-ethenylcyclopropyl]carbamoyl}-18-methoxy-7,10-dioxo-2,13-dioxa-6,9,23-triazatetracyclo[15.6.2.13,6.020,24]hexacosa-1(23),15,17(25),18,20(24),21-hexaen-11-yl] carbamate monohydrate]",IC50,[1],4 nM
same,Accuracy,[2]; [10],2.8%
same,Measured Conc.,[2]; [10],5.14 ng/mL
same,Accuracy,[2]; [11],0.6%
same,Measured Conc.,[2]; [11],100.63 ng/mL
same,Accuracy,[2]; [12],−0.2%
same,Measured Conc.,[2]; [12],3992.75 ng/mL
same,Accuracy,[2]; [13],1.8%
same,Measured Conc.,[2]; [13],5.09 ng/mL
same,Accuracy,[2]; [14],3.3%
same,Measured Conc.,[2]; [14],103.26 ng/mL
same,Accuracy,[2]; [15],−0.3%
same,Measured Conc.,[2]; [15],3987.91 ng/mL
same,AUC relative to MK-1220 (fold higher),[3],~11 fold
same,Cmax relative to MK-1220 (fold higher),[3],about 2 fold
same,Time of maximum plasma drug concentration,[3]; both,about 6 h
same,VD,[4],0.31 ± 0.12 L
same,Accuracy,[5]; 5 ng/mL,−5.5%
same,Measured Conc.,[5]; 5 ng/mL,4.73 ng/mL
same,Accuracy,[5]; 100 ng/mL,−5.1%
same,Measured Conc.,[5]; 100 ng/mL,94.90 ng/mL
same,Accuracy,[5]; 4000 ng/mL,−1.9%
same,Measured Conc.,[5]; 4000 ng/mL,3925.86 ng/mL
same,Accuracy,"[5]; 4 h, 5 ng/mL",−3.3%
same,Measured Conc.,"[5]; 4 h, 5 ng/mL",4.84 ng/mL
same,Accuracy,"[5]; 4 h, 100 ng/mL",−1.6%
same,Measured Conc.,"[5]; 4 h, 100 ng/mL",98.39 ng/mL
same,Accuracy,"[5]; 4 h, 4000 ng/mL",−2.9%
same,Measured Conc.,"[5]; 4 h, 4000 ng/mL",3884.71 ng/mL
same,Accuracy,"[5]; 24 h, 5 ng/mL",−4.2%
same,Measured Conc.,"[5]; 24 h, 5 ng/mL",4.79 ng/mL
same,Accuracy,"[5]; 24 h, 100 ng/mL",−3.9%
same,Measured Conc.,"[5]; 24 h, 100 ng/mL",96.13 ng/mL
same,Accuracy,"[5]; 24 h, 4000 ng/mL",−2.4%
same,Measured Conc.,"[5]; 24 h, 4000 ng/mL",3904.44 ng/mL
same,Accuracy,"[5]; 40 days, 5 ng/mL",−7.7%
same,Measured Conc.,"[5]; 40 days, 5 ng/mL",4.61 ng/mL
same,Accuracy,"[5]; 40 days, 100 ng/mL",−7.2%
same,Measured Conc.,"[5]; 40 days, 100 ng/mL",92.84 ng/mL
same,Accuracy,"[5]; 40 days, 4000 ng/mL",−4.7%
same,Measured Conc.,"[5]; 40 days, 4000 ng/mL",3812.43 ng/mL
same,concentration at 1 h,"in vivo [6]; po, 2.5 mg/kg",716 ng/mL
same,bioavailability,in vivo [6]; both,34%
same,AUC,"in vivo [6]; both, po, 2.5 mg/kg",64300 ng·h/mL
same,AUC(0-inf),"in vivo [6]; both, po, 2.5 mg/kg",70100 ng·h/mL
same,Cmax,"in vivo [6]; both, po, 2.5 mg/kg",4260 ± 400 ng/mL
same,MRT,"in vivo [6]; both, po, 2.5 mg/kg",19.4 ± 3.22 h
same,Tmax,"in vivo [6]; both, po, 2.5 mg/kg",6.3 ± 0.8 h
same,half-life,"in vivo [6]; both, po, 2.5 mg/kg, t1/2",12.4 ± 1.51 h
same,AUC,"in vivo [6]; both, po, 5 mg/kg",122000 ng·h/mL
same,AUC(0-inf),"in vivo [6]; both, po, 5 mg/kg",135000 ng·h/mL
same,Cmax,"in vivo [6]; both, po, 5 mg/kg",6780 ± 750 ng/mL
same,MRT,"in vivo [6]; both, po, 5 mg/kg",22.2 ± 2.18 h
same,Tmax,"in vivo [6]; both, po, 5 mg/kg",6.3 ± 1.5 h
same,half-life,"in vivo [6]; both, po, 5 mg/kg, t1/2",13.9 ± 1.48 h
same,AUC,"in vivo [6]; both, po, 10 mg/kg",176000 ng·h/mL
same,AUC(0-inf),"in vivo [6]; both, po, 10 mg/kg",205000 ng·h/mL
same,Cmax,"in vivo [6]; both, po, 10 mg/kg",9410 ± 583 ng/mL
same,MRT,"in vivo [6]; both, po, 10 mg/kg",25.6 ± 3.48 h
same,Tmax,"in vivo [6]; both, po, 10 mg/kg",6.3 ± 0.8 h
same,half-life,"in vivo [6]; both, po, 10 mg/kg, Elimination half time (t1/2)",12.4 to 17.2 h
same,half-life,"in vivo [6]; both, po, 10 mg/kg, t1/2",17.2 ± 2.73 h
same,AUC,in vivo [7],66600 ng·h/mL
same,AUC(0-inf),in vivo [7],75200 ng·h/mL
same,C0,in vivo [7],9510 ± 442 ng/mL
same,MRT,in vivo [7],20.8 ± 3.41 h
same,clearance,in vivo [7],0.333 mL/min/kg
same,half-life,in vivo [7],16.3 ± 2.99 h
COc1ccc2c(O[C@@H]3C[C@H]4C(=O)N[C@]5(C(=O)O)C[C@H]5/C=C\CCCCC[C@H](NC(=O)OC5CCCC5)C(=O)N4C3)cc(-c3csc(NC(C)C)n3)nc2c1 [BILN-2061],Cardiotoxicity finding,[8],cardiotoxocity identified in rhesus monkeys
C=C[C@@H]1C[C@]1(NC(=O)[C@@H]1C[C@@H]2CN1C(=O)[C@H](C1CCCCC1)NC(=O)OCC(C)(C)CCCc1cc3c(nccc3cc1OC)O2)C(=O)NS(=O)(=O)C1CC1 [MK-1220],IC50,"[1]; NS3 enzyme, genotype 1b HCV, in vitro, read-out: IC50",11 nM
same,t1/2,[9],about 6 h
CCC[C@H](NC(=O)[C@@H]1[C@H]2CCC[C@H]2CN1C(=O)[C@@H](NC(=O)[C@@H](NC(=O)c1cnccn1)C1CCCCC1)C(C)(C)C)C(=O)C(=O)NC1CC1 [telaprevir],IC50,[1],95 nM
